Measurements taken from publication PMC9046208, “Foldamers reveal and validate therapeutic targets associated with toxic α-synuclein self-assembly” (Nature Communications, 2022).

How the values were obtained:
[1] = biological target: T1, αS aggregation (Homo sapiens, UniProt P37840); assay: ThT aggregation kinetic assay, de novo, WT αS; assay type: biochemical; settings: 100 μM analog, 100 μM αS
T1 construct: made in house; host or cells: Escherichia coli BL21(DE3), periplasm
Method: The aggregation kinetics of αS was monitored using ThT fluorescence assay (λex = 450 nm and λem = 485 nm). To study the aggregation kinetics of αS, the ThT dye at a final concentration of 50 μM was added to 100 μM αS solution in the aggregation buffer (1 x PBS buffer) with and without various concentrations of SK-129 in a Costar black 96–well plate (Corning Inc., Kennebunk, ME). The small molecules were dissolved in dimethyl sulfoxide (DMSO; final DMSO concentration = 0.5%, v/v). The final volume in each well was 140 μL. The plate was incubated at 37 °C with 16 min shaking (434 rpm) and 44 min without shaking in an Infinite M200PRO plate reader (Tecan, Männedorf, Switzerland) and fluorescence was recorded after every hour. We used two methods to quantify the effect of molecules on the aggregation of αS; either we have reported the t50 (time required to reach 50% fluorescence of ThT), which was extracted by fitting the ThT curve as a sigmoidal fit or the absolute ThT fluorescence intensity was reported. […] In the second method, we determined the final ThT fluorescence intensity for the aggregation of αS/Aβ42(with or without ligands) as an average of three separate experiments. […]
The aggregation kinetics of WT αS and αS variants were monitored and was carried out with a slightly modified protocol. […] The aggregation of proteins was monitored at the indicated times (See the main manuscript). […]

[2] = biological target: T2, αS seeds extracted from PD brain (Homo sapiens, UniProt P37840); assay: PMCA assay with αS seeds from PD brain (PK digestion, western blot); assay type: biochemical; settings: SK-129 equimolar
T2 construct: Synuclein Residues (1-140); made in house; host or cells: Monomer: Escherichia coli BL21(DE3), WT αS in pET11 (Addgene); Seeds: fixed human substantia nigra tissue from post mortem PD brain
From the text: Fixed brain tissues were obtained from the Carroll A. Campbell, Jr. Neuropathology Lab (CCNL) brain bank at the Medical University of South Carolina (Dr. Steve Carroll, Director) and from Dr. Greg Gerhardt’s laboratory at the University of Kentucky. The seeds were extracted from the post mortem brain by following a published protocol with a slight modification. The brain was sliced in 1 cm slabs as soon as possible to avoid long post mortem intervals and fixed free-floating in a solution of 4% paraformaldehyde in 1x PBS buffer (4% paraformaldehyde in 1x PBS buffer). […] Following fixation, tissue was transferred to a cryoprotectant solution (30% glycerol, 30% ethylene glycol, and 40% 1x PBS buffer, v,v) and kept at −20 °C until dissection. A total of Sixteen brain regions were dissected after fixation and processed for neuropathological diagnosis of PD according to a published protocol. A diagnosis was conducted, which included staining with H & E, Bielshowsky’s silver stain, as well as p-Tau, Amyloid-β, and αS immunohistochemistry (See main manuscript Fig. 4b, c). From the total tissue amount, ~100 mg of fixed substantia nigra tissue was homogenized using a Bio-Gen PRO200 Tissue Homogenizer (PRO Scientific Inc., Oxford, CT) in 1x PBS buffer (10%, w/v). The homogenate was centrifuged at a rate of 19,000 × g for 12 min. […]

SMILES: COC(=O)c1cc(OCC(=O)O)c2cccc(NC(=O)c3cc(OC(C)C)c4cccc(NC(=O)c5cc(OCC(=O)O)c6cccc(NC(=O)c7cc(OC(C)C)c8cccc([N+](=O)[O-])c8n7)c6n5)c4n3)c2n1 [SK-129]
- antagonist activity against αS aggregation among analogs [1]: most potent antagonist
- state of PMCA sample (cycle 5) of PD brain extract [2]: neither aggregated nor PK resistant
